Data taken from US20240400546A1, “COMPOUNDS AND USES THEREOF” (JANSSEN PHARMACEUTICA NV, priority 2016, published 2024).

Tests used:
Type in all cases: cell-based
[1] = target: T1, SCD5 (Homo sapiens, UniProt Q86SK9); experiment: Growth inhibition of humanized yeast expressing SCD5 as sole desaturase; conditions: for half-maximal inhibitory concentration (IC50), SCD5 humanized strain: FIG. 6
T1 construct: host or cells: S. cerevisiae ole1Δ strain, plasmid pRS316 with TDH3 promoter and CYC1 terminator
T1 sequence (Q86SK9 1-330): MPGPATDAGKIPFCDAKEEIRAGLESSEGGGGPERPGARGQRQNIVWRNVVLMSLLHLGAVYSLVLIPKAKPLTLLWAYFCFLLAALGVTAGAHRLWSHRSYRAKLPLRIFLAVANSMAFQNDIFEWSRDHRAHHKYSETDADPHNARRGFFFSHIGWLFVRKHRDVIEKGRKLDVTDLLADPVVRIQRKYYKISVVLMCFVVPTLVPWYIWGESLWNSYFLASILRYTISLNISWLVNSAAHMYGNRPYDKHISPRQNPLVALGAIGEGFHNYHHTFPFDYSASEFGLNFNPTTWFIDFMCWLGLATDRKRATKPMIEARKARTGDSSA
Description: (§1) Strain ole1Δ (yeast ole1 deletion mutant) was constructed by deleting OLE1 with NAT-MX6 in BY4741, amplifying the deletion cassette from the genomic DNA of the resulting strain with primers flanking the ORF by 1000 bp upstream and downstream, transforming the resulting deletion cassette into W303 pdr1Δ pdr3Δ, and plating transformants on YPD media containing G418 (200 μg/mL) and nourseothricin (100 μg/mL) with 0.01% TWEEN®-20 and 0.5 mM oleic and palmitoleic acids.
(§2) The coding sequence of yeast OLE1 was also cloned into this plasmid). These clones were then transformed into the ole1Δ strain and plated on CSM-Ura media (CSM lacking uracil) with 2% glucose (w/v) and independent colonies were isolated and amplified.
(§3) All compound profiling experiments were performed using the same basic protocol. Different genetic backgrounds (e.g., gene deletions) or conditions (e.g., addition of oleic and palmitoleic acid) were replaced as indicated below.
(§4) Yeast were cultured using standard techniques in complete synthetic media (CSM) and yeast nitrogen base supplemented with 2% (w/v) carbon source (glucose, raffinose, or galactose) to regulate the expression of the toxic disease protein. An initial starter culture was inoculated in 3 mL CSM-Glucose media and incubated overnight in a 30° C. shaker incubator (225 rpm). Saturated morning cultures were then diluted 1:20 in fresh CSM-Raffinose media and grown for 6 h to an OD600 (optical density) of ˜0.4-0.8 at 30° C. with shaking.
(§5) Compound administration was performed in two separate steps. First, 15 μL of CSM-Galactose (induces expression of toxic protein) was dispensed into clear 384 well assay plates using a MULTIDROP™ Combi reagent dispenser. […] The cultures described above were then diluted to a 2× concentration (0.03 and 0.08 for alpha-synuclein and ApoE, final OD600 of 0.015 and 0.04) in CSM-Galactose. For wild-type and Ole1/SCD1/SCD5 plasmid-containing strains, the 2× cell density was 0.02. […] For 96-well assays (FIGS. 1A and 1B), compound dilutions in DMSO were generated in 96 well plates and 1 μL was manually pipetted into 96 well clear bottom assay plates.
(§6) For experiments using a plasmid-borne copy of Ole1, SCD1, or SCD5 (FIGS. 3B, 6, and 7), media lacking uracil (SX-Ura, where X is glucose, raffinose, or galactose), was used for all steps of the compound profiling protocol to ensure its maintenance throughout the assay.
(§7) After yeast delivery, assay plates were incubated under humidified conditions at 30° C. for 24 to 40 h. ApoE4 rescue experiments were stopped at 24 h, aSyn experiments at 40 h, Ole1 at 24 h, and SCD1/SCD5 at 40 h. The growth of yeast was monitored by reading the OD600 of each well using a microplate reader (Perkin Elmer EnVision™).

[2] = target: T2, Ole1 (Saccharomyces cerevisiae, UniProt P21147); experiment: Growth inhibition of yeast expressing Ole1 as sole desaturase; conditions: for Sensitivity of yeast expressing OLE1 to known SCD1/SCD5 inhibitors: FIG. 6; for OLE1 % Max Inhibition: yeast expressing Ole1 as sole desaturase
T2 construct: expressed in transfected cells; host or cells: S. cerevisiae ole1Δ strain (W303 pdr1Δ pdr3Δ background), plasmid pRS316 with TDH3 promoter and CYC1 terminator
T2 sequence (P21147 1-510): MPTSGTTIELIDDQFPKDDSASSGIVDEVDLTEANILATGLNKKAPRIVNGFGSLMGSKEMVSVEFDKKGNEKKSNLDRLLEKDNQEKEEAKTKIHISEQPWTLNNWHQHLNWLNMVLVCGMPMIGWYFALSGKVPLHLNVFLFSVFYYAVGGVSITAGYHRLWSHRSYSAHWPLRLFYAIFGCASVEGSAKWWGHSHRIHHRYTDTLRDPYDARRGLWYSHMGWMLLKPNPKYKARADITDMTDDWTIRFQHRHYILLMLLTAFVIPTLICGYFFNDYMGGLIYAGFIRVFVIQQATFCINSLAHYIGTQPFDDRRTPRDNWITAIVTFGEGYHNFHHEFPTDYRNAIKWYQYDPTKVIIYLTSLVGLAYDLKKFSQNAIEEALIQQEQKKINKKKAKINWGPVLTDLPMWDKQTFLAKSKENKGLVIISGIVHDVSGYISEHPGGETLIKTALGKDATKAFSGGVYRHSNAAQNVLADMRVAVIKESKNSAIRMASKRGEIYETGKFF
Description: as §1, §2, §3, §4, §5, §6, §7

[3] = target: T3, SCD1 (Homo sapiens, UniProt O00767); experiment: Growth inhibition of humanized yeast expressing SCD1 as sole desaturase
T3 construct: host or cells: S. cerevisiae ole1Δ strain, plasmid pRS316 with TDH3 promoter and CYC1 terminator
T3 sequence (O00767 1-359): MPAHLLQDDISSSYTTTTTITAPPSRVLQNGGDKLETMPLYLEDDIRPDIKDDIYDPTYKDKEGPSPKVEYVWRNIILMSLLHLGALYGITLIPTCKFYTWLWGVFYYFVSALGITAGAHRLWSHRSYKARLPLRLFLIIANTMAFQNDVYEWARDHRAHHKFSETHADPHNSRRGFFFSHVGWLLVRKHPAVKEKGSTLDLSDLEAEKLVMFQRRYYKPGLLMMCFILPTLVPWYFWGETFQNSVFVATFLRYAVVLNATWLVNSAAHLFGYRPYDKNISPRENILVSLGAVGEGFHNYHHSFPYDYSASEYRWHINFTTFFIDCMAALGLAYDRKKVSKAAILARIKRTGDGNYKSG
How it was run: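 ole1Δ yeast (W303 pdr1Δ pdr3Δ background) carried plasmid-borne human SCD1, human SCD5 or yeast Ole1 as the sole desaturase and were grown in uracil-lacking galactose medium in 384-well plates. Starting 2× density was OD600 0.02, with incubation at 30 °C. Growth was read as OD600 at 24 h for Ole1 and at 40 h for SCD1 and SCD5.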

[4] = humanized yeast expressing human SCD5
[5] = humanized yeast expressing human SCD1
[6] = humanized yeast expressing SCD5
[7] = humanized yeast expressing SCD1

In the case of `O=C(O)Cn1nnc(-c2cc(N3CCC(Oc4cc(F)ccc4Br)CC3)no2)n1` [MK-8245, reference compound], the “half-maximal inhibitory concentration (IC50), SCD5 humanized strain” value [1] is reported as “low nanomolar” and the “Sensitivity of yeast expressing OLE1 to known SCD1/SCD5 inhibitors” value [2] is reported as “resistant”.
Work on `Cc1cc(N2CCN(c3nc(-c4ccc5cnn(C(C)C)c5c4)no3)CC2)on1` [Compound 657] yielded an IC50 ([1]; growth of humanized yeast strain expressing human SCD5) of 9.11 µM and an IC50 ([3]; growth of humanized yeast strain expressing human SCD1) of over 45 µM.
With `Cc1nnc(-c2ccc(N3CCC(Oc4ccccc4C(F)(F)F)CC3)nn2)s1` [MF-438, reference compound] the “half-maximal inhibitory concentration (IC50), SCD5 humanized strain” value [1] was “low nanomolar”, the “Sensitivity of yeast expressing OLE1 to known SCD1/SCD5 inhibitors” value [2] was “resistant” and the “half-maximal inhibitory concentration (IC50), SCD1 humanized strain” value ([3]; FIG. 6) was “low nanomolar”.
`Cc1nn(C)c2cc(-c3noc(C4CCN(C(=O)CNC(=O)c5ccc(Cl)cc5)CC4(F)F)n3)ccc12` (centres unmarked) [Compound 553] gave an IC50 [1, 4] of 0.885 µM and an IC50 [3, 5] of 5.71 µM.
`COCC(C)(C)n1ncc2ccc(-c3noc(C4CCN(C(=O)OC(C)(C)C)CC4)n3)cc21` [Compound 788] was tested, and the IC50 ([1]; humanized yeast strain, 40 h) was 6.22 µM and the IC50 ([3]; humanized yeast strain, 40 h) was over 45 µM.
`COc1ccc(-c2noc(C3CCN(C(=O)[C@H]4CC(=O)N(c5ccccc5)C4)CC3)n2)cc1OC` [Compound 65] was tested, and the IC50 [1, 6] was over 45 µM, the “SCD5 % Max Inhibition” value [1, 6] was 73.43% and the “OLE1 % Max Inhibition” value [2] was 4.02%. For the same compound, the IC50 [3, 7] was over 45 µM and the “SCD1 % Max Inhibition” value [3, 7] was 83.43%.
For `COc1cccc(-c2noc(C3CCN(C(=O)[C@@H]4CC(=O)N(c5ccc(C)c(C)c5)C4)CC3)n2)c1` (single isomer, unassigned) [Compound 69], the “SCD5 % Max Inhibition” value [1, 6] was 8.06%, the “OLE1 % Max Inhibition” value [2] was 105.31% and the “SCD1 % Max Inhibition” value [3, 7] was 60.59%.
`COC(=O)C1CCCN(c2noc(-c3ccc4cnn(C5COC5)c4c3)n2)CC1` (centres unmarked) [Compound 857] gave an IC50 ([1]; humanized yeast strain, 40 h) of 26.8 µM and an IC50 ([3]; humanized yeast strain, 40 h) of over 45 µM.
With `Cc1nn(C)c2cc(-c3nsc(C4CCN(C(=O)CNC(=O)c5cccc(C#N)c5)CC4)n3)ccc12` [Compound 322] the IC50 [1, 4] was over 45 µM, the “SCD5 % Max Inhibition” value [1, 4] was 29.8% and the “OLE1 % Max Inhibition” value [2] was 9.0%. The IC50 [3, 5] was over 45 µM and the “SCD1 % Max Inhibition” value [3, 5] was 73.6%.
For `O=C(c1ccccc1)N1CCC(c2nc(Cl)no2)CC1` [Compound 351], the IC50 [1, 4] was at least 45 µM.
`CC1=NN(C)C2C=C(c3noc([C@H]4CC[C@H](O)CC4)n3)C=CC12` (some centres unmarked) [Compound 526] showed an IC50 [1, 4] of over 45 µM and an IC50 [3, 5] of over 45 µM.
Work on `CC(C)n1ncc2ccc(-c3noc(C4CCNCC4)n3)cc21` [Compound 500] yielded an IC50 [1, 4] of over 45 µM and an IC50 [3, 5] of over 45 µM.
`COc1ccc(-c2noc(C3CCN(C(=O)[C@@H]4CC(=O)N(c5ccccc5)C4)CC3)n2)cc1OC` [Compound 66] was tested, and the IC50 [1, 6] was over 45 µM, the “SCD5 % Max Inhibition” value [1, 6] was 19.53% and the “OLE1 % Max Inhibition” value [2] was 99.71%. For the same compound, the IC50 [3, 7] was over 45 µM and the “SCD1 % Max Inhibition” value [3, 7] was 94.04%.
Compound `CC(C)n1ncc2ccc(N3CC4(CCN(C(=O)OC(C)(C)C)CC4)C3)cc21` [Compound 511] has an IC50 [1, 4] of 3.39 µM and an IC50 [3, 5] of over 45 µM.
